Three compounds from patent US20200281989A1, “METHOD OF PREPARING A COMPOSITION FOR TREATING CANCER” (priority 2019, published 2020) can be followed below.

Experiment [1] has as its system human leukemia K562 cells. Nature of the experiment: WST-1 cell proliferation assay, K562 leukemia cells. It is filed as cell-based. The note with it: for anti-proliferative effect on leukemic K562 cells: WST-1, FIGS. 3B, 4A. As for the experimental part: The graphs show results of different concentrations of the compounds using the WST-1 spectrophotometric detection assay. WST is a colorimetric assay to assess cell proliferation under different treatment conditions. This assay is based on the cleavage of a tetrazolium salt (2-(4-Iodophenyl)-3-(4-nitrophenyl)-5-phenyl-2h-tetrazolium chloride) to form formazan (a colored compound) by mitochondrial dehydrogenases in viable cells. As a result, the assay measures the net metabolic activity of the cells. Human leukemia K562 cell line was purchased from ATCC (Manassas, Va., USA) and plated a day before the experiment in normal growth medium. The next day, the medium was replaced with serum free medium (Gibco #11835-030) to starve the cells for 4 h. Cells were deprived of serum for 4 h before treatment with the lipids to eliminate binding of the compounds to serum proteins. After starvation, K562 cells were then centrifuged. The medium was replaced with fresh IMDM media containing 1% (v/v) FBS and 100 units of PS. Cells (1×104 in 100 L) were seeded into each well with conditioned medium for overnight (20 h) in a 96-well plate to which the test compounds (−ve control ethanol, Ft-3, F-6 and S5) were added at the concentrations indicated. A volume of 10 uL WST-1, cell proliferation assay reagent (Roche Diagnostics, Indianapolis, Ind., USA), was added to each well and incubated for 4 h, and then the wells were read on a plate reader at 450 nm with a reference reading at 650 nm. Reference reading at 650 nm was used for subtracting background readouts.
Another embodiment of the anti-cancer oral composition was prepared by combining lipid Fraction 3 of the neutral lipid fraction and ethanol in a ratio of 20 μg/μL to provide a mixture. The mixture was prepared by dissolving Fraction 3 in pure ethanol then diluting it to the desired concentration with culture medium. Cells (1×10^4) were starved overnight in serum-free medium, then the medium was replaced prior to incubation with IMDM/1% FBS/pen-strep. […]
In general terms: Formazan colour is commonly taken as a measure of viable cells.

The subject of another experiment is breast MCF-7 cells. Kind of experiment: WST-1 cell proliferation assay, MCF-7 breast cancer cells. In kind it is cell-based, human. The note with it: WST-1, FIG. 4B. As for the experimental part:
FIG. 4B is a graph showing the effect of fraction 3 of the neutral lipids, furan (F6), and a steroid found in fraction 3 of the neutral lipids, (S5) and the two isolated components from fraction 3 of the neutral lipids on breast MCF-7 cells using the WST-1 spectrophotometric detection assay. WST was performed to assess cell proliferation under different treatment conditions. The assay measured the net metabolic activity of the cells. Human breast MCF-7 cell line was purchased from ATCC (Manassas, Va., USA). 1×10^4 cells/well/100 L) and were plated a day before experiment in normal growth medium. The next day, the medium was replaced with serum free medium (Gibco #11835-030) to starve the cells for 4 h. Cells were deprived of serum for 4 h before treatment with the lipids to eliminate binding of the compounds to serum proteins. After starvation, the medium was replaced with fresh IMDM media containing 1% (v/v) FBS and 100 units of PS. Cells (1×104 in 100 L) were seeded into each well with conditioned medium overnight (20 h) in a 96-well plate to which the test compounds (−ve control ethanol, Fr-3 of the neutral lipids, F6 and S5) were added at the concentrations indicated. […] Then, the wells were read on a plate reader at 450 nm with a reference reading at 650 nm. Reference reading at 650 nm was used for subtracting background readouts.

In experiment [2] the test system is human breast cancer cells MDA MB-231. Nature of the experiment: WST-1 cell proliferation assay, MDA MB-231 breast cancer cells. In kind it is cell-based. The note with it: WST-1, FIG. 4C. As for the experimental part:
FIG. 4C is a graph showing the effect of fraction 3 of the neutral lipids, furan (F6), and a steroid (S5) on human breast cancer cells MDA MB-231 using the WST-1 spectrophotometric detection assay. The assay measured the net metabolic activity of the cells. Human breast MDA MB-231 cell line was purchased from ATCC (Manassas, Va., USA). MCF-7 and 1_x 10^4 cells/well/100 uL) and were plated a day before experiment in normal growth medium. The next day, medium was replaced with serum free medium (Gibco #11835-030) to starve the cells for 4 h. Cells were deprived of serum for 4 h before treatment with the lipids to eliminate binding of the compounds to serum proteins. After starvation, Cells (1_x 104 in 100 L) were seeded into each well with conditioned medium overnight (20 h) in a 96-well plate to which the test compounds (−ve control ethanol, Ft-3, F-6 and S5) were added at the concentrations indicated. A volume of 10 uL WST-1, cell proliferation assay reagent (Roche Diagnostics, Indianapolis, Ind., USA), was added to each well and incubated for 4 h. Then, the wells were read on a plate reader at 450 nm with a reference reading at 650 nm. Reference reading at 650 nm was used for subtracting background readouts.

For another experiment, the system named is Hep3B cells. Kind of experiment: Invasion chamber (transwell) assay / metastatic potential, Hep3B cells. The note with it: FIGS. 17A-17E. In kind it is cell-based, human. The protocol:
(§1) Another embodiment of the anti-cancer oral composition was prepared by combining lipid Fraction 1 with ethanol to provide a first mixture in a ratio of 5 μg/mL, a second mixture in a ratio of 10 μg/mL, and a third mixture in a ratio of 25 μg/mL. The mixtures and a control (0.1% ethanol) were tested for inhibition of metastatic potential of cancer Hep3B cell line (FIGS. 13A-13E) and cancer Panc-1 cell line (FIGS. 13F-131).
(§2) An aliquot of 0.5 ml Hep3B or Panc-1 cell suspension in serum-free medium with BSA (1 mg/ml) containing 6×10^4 cells/ml was mixed with F6 and then applied to each invasion chamber. An aliquot of 0.5 ml medium with 10% serum was loaded into the bottom of the well. After incubation for 6 hours, cells that invaded to the bottom surface of the transwell were fixed with 70% ethanol, stained with Diff Quik solution (Sysmex), and counted in five selected fields.

The test system of experiment [3] is human pancreatic cancer cells (Panc-1 cells). Kind of experiment: Cell growth inhibition, Panc-1 pancreatic cancer cells. In kind it is cell-based. The note with it: F6 5-50 μg/ml for 72 hours, FIG. 18A.
In the next experiment the test system is Capan2 cells. Kind of experiment: Proliferation of Capan2 pancreatic cancer cells. In kind it is cell-based, human. The note with it: F6 5-50 μg/ml for 72 hours, FIG. 18A.
Another experiment has as its system BxPC3 cells. Kind of experiment: Proliferation of BxPC3 pancreatic cancer cells. In kind it is cell-based, human. The note with it: F6 5-50 μg/ml for 72 hours, FIG. 18A.
Experiment [4] concerns Panc-1 cells. Nature of the experiment: Invasion chamber (transwell) assay, Panc-1 cells. The note with it: concentration dependent, 6 hours incubation, FIGS. 19A-19B. It is filed as cell-based, human. The protocol:
as §1, §2

For experiment [5], the system named is Panc-1 cells. Kind of experiment: Apoptosis induction (cell cycle, caspase-3), pancreatic cancer cells. It is filed as cell-based, human. The note with it: FIGS. 18A-18F.

Consider `CC(C)CCC[C@@H](C)[C@H]1CC[C@H]2[C@@H]3CC=C4C=CCC[C@]4(C)[C@H]3CC[C@]12C` [Fraction S5, cholesta-3,5-diene], for which the “anti-proliferative effect on leukemic K562 cells” value in experiment [1] is listed as “anti-proliferative effects”. The “anti-proliferative effect on breast MCF-7 cells” value in the experiment on breast MCF-7 cells is on record as “anti-proliferative effects”. For the same compound, the “anti-proliferative effect on breast MDA MB-231 cells” value in experiment [2] is given as “anti-proliferative effects”. Besides, the “Hep3B cell metastasis (markers migration and invasion)” value in the experiment with Hep3B cells is on record as “inhibit cancer Hep3B cell metastasis”.
For the compound `CCCCCc1oc(CCCCCCCCCCC(=O)O)c(C)c1C` [Fraction F6, 12,15-epoxy-13,14-dimethyleicosa-12,14-dienoic acid], in experiment [3], the “inhibition of proliferation of Panc-1 cells” value is reported as “potently inhibited proliferation”. For the same compound, the “anti-proliferative effect on leukemic K562 cells” value in experiment [1] is on record as “anti-proliferative effects”. In the experiment with breast MCF-7 cells, the “anti-proliferative effect on breast MCF-7 cells” value is reported as “anti-proliferative effects”. In experiment [2], the “anti-proliferative effect on breast MDA MB-231 cells” value was “anti-proliferative effects”. The “inhibition of proliferation of Capan2 cells” value in the experiment with Capan2 cells is on record as “potently inhibited proliferation”. The “inhibition of proliferation of BxPC3 cells” value in the experiment with BxPC3 cells was “potently inhibited proliferation”. Also, in the experiment on Panc-1 cells [4], the “invasion of Panc-1 cells” value is given as “inhibited invasion”. The “Hep3B cell metastasis (markers migration and invasion)” value in the experiment on Hep3B cells is “inhibit cancer Hep3B cell metastasis”. For the same compound, in the experiment on Panc-1 cells [5], the “mechanism of regulation of pancreatic cancer cell growth” value was “induction of apoptosis”.
In the case of `Cc1ccc(NC(=O)c2ccc(CN3CCN(C)CC3)cc2)cc1Nc1nccc(-c2cccnc2)n1` [Gleevec, reference compound], the “effect of combination of Fraction 3 and Gleevec on K562 cell survival” value in experiment [1] (Gleevec 2 uM with Fraction 3, WST-1, FIG. 3B) is recorded as “potentiated the anti-proliferative effect”.
